This is an account of results in BindingDB's records for doi:10.7270/Q2ZP44H3 (Vanderbilt Screening Center For Gpcrs, Ion Channels and …, 2009).

Structures are written as SMILES.

The target in the experiment is T1, Solute carrier family 12 member 5 (Homo sapiens, UniProt Q9H2X9).
T1 sequence (Q9H2X9 whole entry): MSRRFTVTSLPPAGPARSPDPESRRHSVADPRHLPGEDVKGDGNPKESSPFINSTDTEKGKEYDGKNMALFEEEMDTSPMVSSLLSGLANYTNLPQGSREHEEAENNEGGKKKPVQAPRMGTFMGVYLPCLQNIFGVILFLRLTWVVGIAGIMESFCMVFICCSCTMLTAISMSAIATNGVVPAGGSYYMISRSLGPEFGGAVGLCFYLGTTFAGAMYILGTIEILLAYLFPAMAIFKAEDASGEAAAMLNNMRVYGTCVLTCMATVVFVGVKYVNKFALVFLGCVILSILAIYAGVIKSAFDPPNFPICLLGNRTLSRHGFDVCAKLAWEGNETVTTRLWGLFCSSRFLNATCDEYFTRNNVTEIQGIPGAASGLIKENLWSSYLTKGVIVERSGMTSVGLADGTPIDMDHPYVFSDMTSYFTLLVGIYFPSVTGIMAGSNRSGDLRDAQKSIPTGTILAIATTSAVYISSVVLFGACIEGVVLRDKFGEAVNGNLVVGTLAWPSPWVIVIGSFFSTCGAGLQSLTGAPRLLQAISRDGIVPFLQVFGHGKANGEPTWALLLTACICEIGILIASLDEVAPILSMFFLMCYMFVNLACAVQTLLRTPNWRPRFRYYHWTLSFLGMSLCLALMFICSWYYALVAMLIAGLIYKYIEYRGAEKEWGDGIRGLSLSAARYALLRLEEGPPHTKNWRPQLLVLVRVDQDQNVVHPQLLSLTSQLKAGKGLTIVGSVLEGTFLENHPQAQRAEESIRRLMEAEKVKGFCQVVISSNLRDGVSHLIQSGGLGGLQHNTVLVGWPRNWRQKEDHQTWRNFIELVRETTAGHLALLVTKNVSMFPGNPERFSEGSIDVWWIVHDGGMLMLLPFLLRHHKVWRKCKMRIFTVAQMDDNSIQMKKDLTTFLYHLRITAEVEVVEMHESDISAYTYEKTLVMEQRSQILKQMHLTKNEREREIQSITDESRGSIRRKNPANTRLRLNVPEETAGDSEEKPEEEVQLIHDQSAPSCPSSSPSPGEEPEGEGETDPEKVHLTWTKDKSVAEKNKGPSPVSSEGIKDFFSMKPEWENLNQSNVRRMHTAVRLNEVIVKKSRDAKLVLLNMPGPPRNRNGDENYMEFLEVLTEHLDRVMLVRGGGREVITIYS
The experiment can be described thus: KCC2 and NKCC1 inhibition by rubidium flux, cell-based, NKCC1 counter-screen (AID 1734). For orientation: A counterscreen serves to expose hits that act by an unwanted route or on another target.

Usually IC50 stands for the concentration that gives 50% inhibition. The low end stands for greater potency in that assay, the high end for weaker potency in that assay. In turn, `CCOc1ccc(-n2c(O)c3c(c2O)C(C=Cc2ccccc2)c2sc(=O)[nH]c2S3)cc1` (stereo unspecified) displayed an IC50 of 300 nM.
